Earlier results in US6979682B2, “Platelet-activating factor antagonist inhibition of angiogenesis and tumor growth induced by basic fibroblast” (Board of Supervisors of Louisiana State University and …, priority 2001, dated 2005).
Entries after “also recorded” stand apart in the source; their conditions may differ.

Experiments:
[1] = system: PAF binding sites (microsomal intracellular membranes; synaptosomal plasma membrane); settings: Marcheselli et al., 1990; cited from earlier work
[2] = system: angiogenesis stimulated by HGF, TNF-α or bFGF; settings: cited from earlier work

SMILES | binding to the intracellular PAF binding sites [1] | angiogenesis stimulated by bFGF ([2]; Camussi et al., 1997, Montrucchio et al.) | angiogenesis stimulated by HGF ([2]; Camussi et al., 1997) | angiogenesis stimulated by TNF-α ([2]; Montrucchio et al.)
CCCCCCCCCCCCCCCCCCNC(=O)OCC(COP(=O)([O-])OCC[n+]1ccsc1)OC (stereo not shown) [CV-3988, reference compound] | known to bind to the intracellular PAF binding sites | – | – | –
Cc1nnc2n1-c1sc3c(c1C(c1ccccc1Cl)=NC2)CC(C(=O)N1CCOCC1)C3 (stereo not shown) [WEB 2170] | – | did not inhibit; also recorded: not inhibited | inhibited | inhibited
